# In publication PMC12363935, “Unc-51 Like Kinase 3 (ULK3) is essential for autophagy and cell survival in multiple myeloma” (Research Square, 2025):
# Values joined by “and” are separate entries in the source; they are usually repeats but may differ in a detail not shown here. Identical values can stand only once.
# Assays:
# primary CD138+ MM cells = assay: EMMA ex vivo platform, live cell imaging, 96 hours, collagen matrix with bone marrow stroma and patient plasma; format: cell-based; parameters: scale not given here
# Source text: For clinical robustness, we tested the activity of MA9 in MM patient samples using our ex vivo mathematical myeloma advisor (EMMA) platform (Supplementary Table 1). […]
# For these assays, we used a novel EMMA platform developed at Moffitt. Further details are included in the supplemental Materials. […]
# 400 Ex vivo drug sensitivity characterization
# 401 An ex vivo assay was used to quantify the chemosensitivity of primary MM cells. Fresh BM
# 402 aspirate cells were enriched for CD138+ expression using Miltenyi (Bergisch Gladbach, Germany)
# MM cells (CD138+) were seeded in Corning
# 404 Cell BIND 384 well plates (Corning, NY) with collagen I and previously established human-
# 407 inactivated), penicillin/streptomycin, and patient-derived plasma (10%, freshly obtained from
# 409 added using a robotic plate handler so that every drug/combination was tested at 5 (fixed
# 410 concentration ratio, for combinations) concentrations (1:3 serial dilution) in two replicates.
# 411 Negative controls (supplemented growth media with and without the vehicle control dimethyl
# 412 sulfoxide [DMSO]) were included, as well as positive controls for each drug (cell line MM1.S at
# 413 highest drug concentration). Plates were placed in a motorized stage microscope (EVOS Auto FL,
# 414 Life Technologies, Carlsbad, CA) equipped with an incubator and maintained at 5% CO2 and 37
# 415 °C. […]
# Digital image analysis computes the percent
# 418 viability of MM cells for each time point and experimental condition (drug and concentration)
# [1] = tested on: CD138+ cells isolated from RRMM patient Pt1050; assay: Immunoblot densitometry, patient cells; format: cell-based, human; conditions: Pt1050, 1μM; for ULK3 densitometry: CTRL 0.03; for ULK1 densitometry: CTRL 0.28
# Description: Figure 7. MA9–060 treatment compromises the survival of patient NDMM and RRMM cells ex vivo. A. Representative viability (live cell imaging) response of CD138^+ cells from NDMM patient (Pt620) cultured and tested in autologous stromal microenvironment in EMMA’s ex vivo platform, exposed to three different concentrations of MA9–060 (0.7, 2.2, 6.7 μM). […] (not shown here – 20 μM). B. Ex vivo EMMA platform assay to quantify the chemosensitivity of primary CD138^+ MM cells plated in a collagen matrix with bone marrow stroma and patient plasma. […] C. […] H. Immunoblot showing levels of indicated proteins in CD138^+ cells isolated from RRMM patients (Pt971, Pt1050). Pt1050 CD138^+ cells were assessed for ULK3-mediated autophagy related proteins (ATGs), following treatment with MA9–060 (1μM at 2 and 6 hours).
# 157 5872S). Protein concentration was quantified by Thermo Scientific™ Pierce™ BCA™ Protein
# 30 μg protein was loaded to 10%-15% gel and ran at
# 159 100V for 2 hours. Later protein was transferred to PVDF membrane and blocked with 5% skimmed
# 160 milk in TBST (10 mM Tris/HCl pH8.0, 0.12M NaCl, 0.1% Tween 20) containing 5% BSA [8] for
# 163 at 4°C overnight. Membranes were washed 3 times,10 minutes with TBS. Then incubated with
# 164 appropriate secondary antibodies at 1:1000 ratio in skimmed milk or 2% BSA. The membranes
# 165 were washed again 3 times for 10 minutes with TBST. ECL reagents were added to the membrane
# 166 and blot was developed by LICOR Imaging Studio.
# 167 All immunoblotting assays were performed at least in three replicates and representative
# 168 images are shown. Commercially available antibodies and their dilutions are listed in
# 169 Supplementary Table 5. Immunoblotting images were acquired and quantified using LICOR
# 170 Image Studio Quant software. […]
structure (smiles),measurement,setting,value
Cc1cnc(Nc2ccc(C3CCN(C)CC3)c(F)c2)nc1Nc1ccc(Cl)c(NS(=O)(=O)C(C)(C)C)c1 [MA9060],AUC,"primary CD138+ MM cells; Pt648, LRMM",42.835
same,AUC,"primary CD138+ MM cells; Pt653, LRMM",41.560
same,AUC,"primary CD138+ MM cells; Pt655, LRMM, listed as MA9",26.03
same,AUC,"primary CD138+ MM cells; Pt663, LRMM, listed as MA9",47.02
same,AUC,"primary CD138+ MM cells; Pt665, LRMM, listed as MA9",70.14
same,AUC,"primary CD138+ MM cells; Pt666, LRMM, listed as MA9",49.23
same,AUC,"primary CD138+ MM cells; Pt669, ERMM, listed as MA9",29.51
same,AUC,"primary CD138+ MM cells; Pt672, NDMM, listed as MA9",49.16
same,AUC,"primary CD138+ MM cells; Pt677, NDMM",43.301 and 45.593
same,AUC,"primary CD138+ MM cells; Pt680, ERMM",42.605
same,AUC,"primary CD138+ MM cells; Pt680, ERMM, listed as MA9",35.24
same,AUC,"primary CD138+ MM cells; Pt685, ERMM, listed as MA9",100
same,AUC,"primary CD138+ MM cells; Pt689, NDMM",97.182
same,AUC,"primary CD138+ MM cells; Pt691, LRMM, listed as MA9",68.66
same,AUC,"primary CD138+ MM cells; Pt693, SMOL, listed as MA9",70.97
same,AUC,"primary CD138+ MM cells; Pt694, NDMM, listed as MA9",47.51
same,AUC,"primary CD138+ MM cells; Pt695, LRMM, listed as MA9",70.64
same,AUC,"primary CD138+ MM cells; Pt697, NDMM, listed as MA9",65.92
same,AUC,"primary CD138+ MM cells; Pt700, NDMM",71.574
same,AUC,"primary CD138+ MM cells; Pt700, NDMM, listed as MA9",71.39
same,AUC,"primary CD138+ MM cells; Pt707, LRMM, listed as MA9",73.56
same,AUC,"primary CD138+ MM cells; Pt718, SMOL, listed as MA9",76.17
same,AUC,"primary CD138+ MM cells; Pt737, MGUS",42.854
same,AUC,"primary CD138+ MM cells; Pt738, NDMM, listed as MA9",65.97
same,AUC,"primary CD138+ MM cells; Pt740, SMOL",62.223
same,AUC,"primary CD138+ MM cells; Pt745, NDMM",55.970
same,AUC,"primary CD138+ MM cells; Pt825, NDMM",100
same,AUC,"primary CD138+ MM cells; Pt852, NDMM",41.956
same,AUC,"primary CD138+ MM cells; Pt853, ERMM",49.879 and 54.514
same,AUC,"primary CD138+ MM cells; Pt856, NDMM, listed as MA9",72.33
same,AUC,"primary CD138+ MM cells; Pt865, LRMM, listed as MA9",59.28
same,AUC,"primary CD138+ MM cells; Pt866, NDMM, listed as MA9",37.56
same,AUC,"primary CD138+ MM cells; Pt875, NDMM, listed as MA9",21.1
same,AUC,"primary CD138+ MM cells; Pt885, NDMM",28.777
same,AUC,"primary CD138+ MM cells; Pt885, NDMM, listed as MA9",27.78
same,AUC,"primary CD138+ MM cells; Pt888, LRMM, listed as MA9",59.98
same,AUC,"primary CD138+ MM cells; Pt893, LRMM",96.916
same,AUC,"primary CD138+ MM cells; Pt899, SMOL",28.290
same,AUC,"primary CD138+ MM cells; Pt906, NDMM, listed as MA9",43.69
same,AUC,"primary CD138+ MM cells; Pt909, LRMM",46.043
same,AUC,"primary CD138+ MM cells; Pt912, PCL",41.302
same,AUC,"primary CD138+ MM cells; Pt917, LRMM",73.927
same,AUC,"primary CD138+ MM cells; Pt920, LRMM",44.399
same,AUC,"primary CD138+ MM cells; Pt923, LRMM, listed as MA9",28.34
same,AUC,"primary CD138+ MM cells; Pt932, LRMM",45.003
same,AUC,"primary CD138+ MM cells; Pt933, LRMM, listed as MA9",57.89
same,AUC,"primary CD138+ MM cells; Pt935, NDMM, listed as MA9",25.47
same,AUC,"primary CD138+ MM cells; Pt936, LRMM",83.700
same,AUC,"primary CD138+ MM cells; Pt937, NDMM",48.139 and 40.693
same,AUC,"primary CD138+ MM cells; Pt940, LRMM",72.923
same,AUC,"primary CD138+ MM cells; Pt945, LRMM",39.091
same,AUC,"primary CD138+ MM cells; Pt948, LRMM, listed as MA9",24.69
same,AUC,"primary CD138+ MM cells; Pt951, ERMM, listed as MA9",62.38
same,AUC,"primary CD138+ MM cells; Pt956, NDMM",67.208 and 74.021
same,AUC,"primary CD138+ MM cells; Pt957, LRMM",80.043
same,AUC,"primary CD138+ MM cells; Pt961, NDMM",66.118 and 49.072
same,ULK3 densitometry,[1]; 2h,0.03
same,ULK1 densitometry,[1]; 2h,0.67
same,ULK3 densitometry,[1]; 6h,0.03
same,ULK1 densitometry,[1]; 6h,0.35
